These results are taken from patent US20130253047A1 (priority 2006, published 2013).

This assay deals with H5N1. In kind it is cell-based.
(−)-epigallocatechin gallate: the “inhibition of H5N1 infections in mammalian cells by blocking the attachment and entry into the cells” value (from here on “inhibition of H5N1 infections”) is “inhibits H5N1 infections in mammalian cells”.

Turning to theaflavin-3,3′-digallate, the “inhibition of H5N1 infections” value is on record as “inhibits H5N1 infections in mammalian cells”.

As for theaflavin-3′-gallate, the “inhibition of H5N1 infections” value was “inhibits H5N1 infections in mammalian cells”.

On to `O=c1c(O)cc([C@H]2Oc3cc(O)cc(O)c3C[C@H]2O)cc2c([C@H]3Oc4cc(O)cc(O)c4C[C@H]3O)cc(O)c(O)c12` [theaflavin], for which the “inhibition of H5N1 infections” value is given as “inhibits H5N1 infections in mammalian cells”. On to `O=C(O[C@@H]1Cc2c(O)cc(O)cc2O[C@@H]1c1cc(=O)c(O)c2c(O)c(O)cc([C@H]3Oc4cc(O)cc(O)c4C[C@H]3O)c2c1)c1cc(O)c(O)c(O)c1` [theaflavin-3 gallate], for which the “inhibition of H5N1 infections” value is “inhibits H5N1 infections in mammalian cells”.
